# In US6548495B2, “Dihydro-benzo [B] [1,4] diazepin-2-one derivatives” (Hoffmann-La Roche Inc., priority 2002, dated 2003):
# What was measured:
# [1] = target: T1, recombinant rat mGluR2 expressed in CHO cells (Rattus norvegicus, UniProt P31421); assay: [3H]-LY354740 binding on mGlu2 transfected CHO cell membranes (displacement binding assay); conditions: displacement of 10 nM [3H]-LY354740, membranes of CHO cells expressing rat mGlu2, room temperature, 1 hour; Ki calculated from IC50 with the Cheng and Prusoff equation
# T1 construct: expressed in transfected cells; host or cells: CHO cells, stably transfected with pcD1mGR2 (pcDNA I-amp), G-418 selected; membranes used
# T1 sequence (P31421 19-872): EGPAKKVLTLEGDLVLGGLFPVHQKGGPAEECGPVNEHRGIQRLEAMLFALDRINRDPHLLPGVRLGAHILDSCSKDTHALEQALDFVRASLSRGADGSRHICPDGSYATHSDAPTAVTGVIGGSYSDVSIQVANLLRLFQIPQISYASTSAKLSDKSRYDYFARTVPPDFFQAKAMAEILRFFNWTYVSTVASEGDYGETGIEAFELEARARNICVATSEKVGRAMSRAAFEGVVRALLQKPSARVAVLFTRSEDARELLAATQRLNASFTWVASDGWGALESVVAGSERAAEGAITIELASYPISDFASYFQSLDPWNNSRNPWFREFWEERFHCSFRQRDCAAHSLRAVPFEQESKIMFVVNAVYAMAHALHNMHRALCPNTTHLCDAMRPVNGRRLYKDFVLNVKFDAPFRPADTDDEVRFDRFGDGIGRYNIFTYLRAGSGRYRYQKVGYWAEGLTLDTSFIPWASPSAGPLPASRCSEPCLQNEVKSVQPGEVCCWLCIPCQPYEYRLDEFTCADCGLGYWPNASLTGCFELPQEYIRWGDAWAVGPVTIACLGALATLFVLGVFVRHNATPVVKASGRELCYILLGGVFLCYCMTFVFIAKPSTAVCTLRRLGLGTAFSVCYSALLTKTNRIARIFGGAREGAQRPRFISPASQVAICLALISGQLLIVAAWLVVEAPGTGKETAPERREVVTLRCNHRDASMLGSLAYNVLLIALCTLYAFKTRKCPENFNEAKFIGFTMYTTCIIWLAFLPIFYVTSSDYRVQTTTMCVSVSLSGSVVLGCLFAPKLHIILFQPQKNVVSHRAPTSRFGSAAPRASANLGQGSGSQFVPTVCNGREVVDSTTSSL
# Text: In Table I below some specific Ki values of preferred compounds of the invention are presented. These values were obtained by indirect measurement of the affinity of the compounds for the recombinant rat mGluR2 expressed in CHO cells using a displacement binding assay with 3H-LY354740.
# [^3H]-LY354740 Binding on mGlu2 Transfected CHO Cell Membranes
# Transfection and Cell Culture
# cDNA encoding the rat mGlu2 receptor protein in pBluescript II was obtained from Prof. S. Nakanishi (Kyoto, Japan), and subcloned into the eukaryotic expression vector pcDNA I-amp from Invitrogen (NV Leek, The Netherlands). This vector construct (pcD1mGR2) was co-transfected with a psvNeo plasmid encoding the gene for neomycin resistance, into CHO cells by a modified calcium phosphate method described by Chen & Okayama (1988). The cells were maintained in Dulbecco's Modified Eagle medium with reduced L-glutamine (2 mM final concentration) and 10% dialysed foetal calf serum from Gibco BRL (Basel, Switzerland). Selection was made in the presence of G-418 (1000 ug/mL final). Clones were identified by reverse transcription of 5 μg total RNA, followed by PCR using mGlu2 receptor specific primers 5′-[…]-3′ and 5′-[…]-3′ in 60 mM Tris HCl (pH 10), 15 mM (NH4)2SO4, 2 mM MgCl2, 25 units/mL Taq Polymerase with 30 cycles annealing at 60° C. for 1 min., extention at 72° C. for 30 s, and 1 min. 95° C. denaturation.
# Cells, cultured as above, were harvested and washed three times with cold PBS and frozen at −80° C. The pellet was resuspended in cold 20 mM HEPES-NaOH buffer containing 10 mM EDTA (pH 7.4), and homogenised with a polytron (Kinematica, AG, Littau, Switzerland) for 10 s at 10000 rpm. After centrifugation for 30 min. at 4° C., the pellet was washed once with the same buffer, and once with cold 20 mM HEPES-NaOH buffer containing 0.1 mM EDTA, (pH 7.4). Protein content was measured using the Pierce method (Socochim, Lausanne, Switzerland) using bovine serum albumin as standard.
# After thawing, the membranes were resuspended in cold 50 mM Tris-HCl buffer containing 2 mM MgCl2 and 2 mM CaCl2, (pH 7) (binding buffer). The final concentration of the membranes in the assays was 25 μg protein/mL. Inhibition experiments were performed with membranes incubated with 10 nM [^3H]-LY354740 at room temperature, for 1 hour, in presence of various concentrations of the compound to be tested. Following the incubations, membranes were filtered onto Whatmann GF/C glass fiber filters and washed 5 times with cold binding buffer. Non specific binding was measured in the presence of 10 μM DCG IV. After transfer of the filters into plastic vials containing 10 mL of Ultima-gold scintillation fluid (Packard, Züirich, Switzerland), the radioactivity was measured by liquid scintillation in a Tri-Carb 2500 TR counter (Packard, Züirich, Switzerland).
# The inhibition curves were fitted with a four parameter logistic equation giving IC50 values, and Hill coefficients and the Ki values were calculated using the Cheng and Prusoff equation (Cheng, Y. and Prusoff, W. H., Biochem. Pharmacol. 1973, 22, 3099-3108). A small Ki value expresses high affinity of the compound towards the receptor.
Structure (SMILES),Ki [1],melting point
"Cc1cc2c(cc1C(F)(F)F)NC(=O)CC(c1cccc(-n3nncc3CNC3CC3)c1)=N2 [Example 69, 4-[3-(5-Cyclopropylaminomethyl-[1,2,3]triazol-1-yl)-phenyl]-7-methyl-8-trifluoromethyl-1,3-dihydro-benzo[b][1,4]diazepin-2-one]",26 nM,181 °C
"Cc1cc2c(cc1C(F)(F)F)NC(=O)CC(c1cccc(-n3cccn3)c1)=N2 [Example 77, 7-Methyl-4-(3-pyrazol-1-yl-phenyl)-8-trifluoromethyl-1,3-dihydro-benzo[b][1,4]diazepin-2-one]",70 nM,235 °C
"O=C1CC(c2cccc(-c3nc(CO)cs3)c2)=Nc2ccc(-n3cccc3)cc2N1 [Example 20, 4-[3-(4-Hydroxymethyl-thiazol-2-yl)-phenyl]-8-pyrrol-1-yl-1,3-dihydro-benzo[b][1,4]diazepin-2-one]",28 nM,238 to 240 °C
"NC(=O)c1coc(-c2cccc(C3=Nc4ccc(-n5cccc5)cc4NC(=O)C3)c2)n1 [Example 27, 2-[3-(4-oxo-7-Pyrrol-1-yl-4,5-dihydro-3H-benzo[b][1,4]diazepin-2-yl)-phenyl]-oxazole-4-carboxylic Acid Amide]",62 nM,232 to 234 °C
"N#Cc1cccc(C2=Nc3ccc(-n4cccc4)cc3NC(=O)C2)c1 [Example 4, 3-(4-oxo-7-Pyrrol-1-yl-4,5-dihydro-3H-benzo[b][1,4]diazepin-2-yl)-benzonitrile]",35 nM,219 °C
"O=C1CC(c2cccc(-n3ccnc3)c2)=Nc2ccc(-n3cccc3)cc2N1 [Example 16, 4-(3-Imidazol-1-yl-phenyl)-8-pyrrol-1-yl-1,3-dihydro-benzo[b][1,4]diazepin-2-one]",25 nM,220 °C
"Cc1cc(-c2cccc(C3=Nc4cc(N5CCSCC5)c(C#N)cc4NC(=O)C3)c2)on1 [Example 62, 2-[3-(3-Methyl-isoxazol-5-yl)-phenyl]-4-oxo-8-thiomorpholin-4-yl-4,5-dihydro-3H-benzo[b][1,4]diazepine-7-carbonitrile]",32.5 nM,245 °C

# Now those with a lower Ki [1], led by results:
Ki [1],melting point,Structure (SMILES)
8 nM,233 °C,"CCOc1cc2c(cc1C(F)(F)F)NC(=O)CC(c1ccnc(C#N)c1)=N2 [Example 53, 4-(8-Ethoxy-4-oxo-7-trifluoromethyl-4,5-dihydro-3H-benzo[b][1,4]diazepin-2-yl)-pyridine-2-carbonitrile]"
7.5 nM,206 to 209 °C,"O=C1CC(c2cccc(-n3ccnn3)c2)=Nc2ccc(-n3cccc3)cc2N1 [Example 21, 8-Pyrrol-1-yl-4-(3-[1,2,3]triazol-1-yl-phenyl)-1,3-dihydro-benzo[b][1,4]diazepin-2-one]"
6.5 nM,214 to 217 °C,"Cc1cc2c(cc1C(F)(F)F)NC(=O)CC(c1cccc(-c3nc(CO)sc3C)c1)=N2 [Example 84, 4-[3-(2-Hydroxymethyl-5-methyl-thiazol-4-yl)-phenyl]-7-methyl-8-trifluoromethyl-1,3-dihydro-benzo[b][1,4]diazepin-2-one]"
6 nM,211 °C,"Cn1nccc1-c1cccc(C2=Nc3cc(N4CCOCC4)c(C(F)(F)F)cc3NC(=O)C2)c1 [Example 38, 4-[3-(2-Methyl-2H-pyrazol-3-yl)-phenyl]-7-morpholin-4-yl-8-trifluoromethyl-1,3-dihydro-benzo[b][1,4]diazepin-2-one]"
